Source: US6696466B1, “Methods of treating select neuronal inflammatory disorders using hydroxyalkylquinolines” (priority 2000, dated 2004)
Where “and” joins values, the source holds several entries; their conditions need not be identical. Equal entries are not always repeated. Entries after “also recorded” stand apart in the source; their conditions may differ.

What was measured:
Type in all cases: in vivo, human
[1] = test system: Herpes simplex I and II (HSV I and II); test: Treatment and suppression of cold sores in patients; conditions: for time to resolution of cold sore: Singulair resumed vs the patient's previous sores treated with antivirals
Experimental: Patient had recently discontinued use of Singulair® as a treatment for asthma. […] The cold sore resolved in three days after treatment with Singulair® was resumed. The rate of resolution was faster than the resolution of previous sores which were treated with antiviral treatments such as those marketed under the trademarks Zovirax® or Famvir® (approximately seven to ten days). During the subsequent two years, patient took Singulair® on a daily basis (10 mg, twice a day).
No cold sore was present at the time therapy was started. […] Within five days of termination of treatment, a cold sore developed.

[2] = test system: post-herpetic neuralgia due to a latent Herpes infection; test: Treatment of post-herpetic neuralgia in patients; conditions: 10 mg per day, taken orally; single patient, neuralgia developed despite initial anti-viral agents
Experimental: Patient had post-herpetic neuralgia due to a latent Herpes infection. Neuralgia developed despite initial treatment with anti-viral agents as per standard treatment recommendations. Patient began treatment with Singulair® (10 mg per day, taken orally). The post-herpetic neuralgia resolved in ten days. No further treatment was required.
Patient had postherpetic neuralgia due to a latent Herpes infection. Neuralgia developed despite initial treatment with anti-viral agents as per standard treatment recommendations. Patient began treatment with Singulair® (10 mg per day, taken orally). The post-herpetic neuralgia resolved in 14 days. No further treatment was required.

carpal tunnel syndrome = test: Treatment of patients with carpal tunnel syndrome; conditions: for carpal tunnel symptoms, response to treatment: 10 mg per day, taken orally
Experimental: A carpenter who was experiencing the symptoms of carpal tunnel syndrome was treated with 10 mg of Singulair® per day, taken orally, for four weeks. They continued to perform their daily occupational activities throughout the period of treatment. […] Patient was then treated for short courses of 10 mg of Singulair® per day, whenever symptoms were present, until symptoms subsided.
A patient who worked as a billing clerk had carpal tunnel symptoms which had not responded to non-surgical methods of treatment. Patient was treated with Singulair® at 10 mg daily, taken orally.
A patient who works as a data entry clerk, experienced severe carpal tunnel symptoms. They ceased their occupational activities and began treatment with Singulair® at 10 mg per day, taken orally.
Patient was an insurance clerk who experienced severe carpal tunnel symptoms which had not abated, even after carpal tunnel decompression surgery. For years following surgery, they had experienced severe carpal tunnel symptoms.
Patient was an assembly line worker at an automobile production facility who was experiencing symptoms of carpal tunnel syndrome was treated with 10 mg of Singulair® per day taken orally. […] They required continuous treatment with 10 mg of Singulair® per day taken orally to maintain remission of their symptoms.

cubital tunnel syndrome = test: Treatment of a patient with cubital tunnel syndrome; conditions: 10 mg daily, taken orally, four weeks; single patient, prior NSAIDs and splints failed
Experimental: Patient was a golfer who experienced symptoms of cubital tunnel syndrome. […] Patient was treated with Singulair® at 10 mg daily, taken orally. […] No further treatment was required despite their return to their regular golfing activity.

thoracic outlet syndrome = test: Treatment of a patient with thoracic outlet syndrome; conditions: 10 mg per day, taken orally, four weeks; single patient
Experimental: Patient was treated with Singulair® at 10 mg per day taken orally. […] No further treatment was required.

[3] = test system: natural graying process of scalp hair; test: Inhibition of graying of scalp hair in a patient; conditions: 10 mg per day, taken orally, two years and four months continuous; single patient with graying of temple regions
From the text: Patient had noted the onset of graying of the temple regions of their hair.

| SMILES | time to resolution of cold sore ([1]; single patient) | time to resolution of post-herpetic neuralgia [2] | carpal tunnel symptoms, response to treatment (carpal tunnel syndrome; four weeks, single patient) | carpal tunnel symptoms, response to treatment (carpal tunnel syndrome; six weeks, single patient, occupational activities continued) | carpal tunnel symptoms after cessation of treatment (carpal tunnel syndrome; after treatment was stopped, single patient) | carpal tunnel symptoms at follow-up (carpal tunnel syndrome; follow-up as in each example: forty weeks (Ex. 2), recheck two weeks after return to work on treatment (Ex. 3), continuing treatment (Ex. 4)) | carpal tunnel symptoms on resumption of treatment (carpal tunnel syndrome; treatment resumed after relapse, single patient) | cubital tunnel symptoms, response to treatment (cubital tunnel syndrome) | thoracic outlet syndrome symptoms, response to treatment (thoracic outlet syndrome) | progression of graying of scalp hair [3] | cold sores under continuous daily treatment ([1]; 10 mg per day orally, ten months, patient with history of average two cold sores per month) | development of new cold sore under daily treatment ([1]; 10 mg, twice a day, two years, high ultraviolet light exposure, single patient) | time to cold sore after termination of treatment ([1]; after ten months of treatment, same patient) | cold sores after resumption of treatment ([1]; thirteen months after resumption of treatment, same patient) |
| --- | --- | --- | --- | --- | --- | --- | --- | --- | --- | --- | --- | --- | --- | --- |
| Nc1nc2c(ncn2COCCO)c(=O)[nH]1 [Zovirax®] | seven to ten | – | – | – | – | – | – | – | – | – | – | – | – | – |
| CC(=O)OCC(CCn1cnc2cnc(N)nc21)COC(C)=O [Famvir®] | seven to ten | – | – | – | – | – | – | – | – | – | – | – | – | – |
| CC(C)(O)c1ccccc1CC[C@@H](SCC1(CC(=O)O)CC1)c1cccc(C=Cc2ccc3ccc(Cl)cc3n2)c1 [Singulair®, 1-(((1(R)-(3-(2-(7-chloro-2-quinolinyl)ethenyl)phenyl)-3-(2-(2-hydroxy-2-propyl)phenyl)propyl)thio)methyl)cyclopropaneacetic acid] | three | ten and 14 days | complete remission of symptoms; also recorded: symptoms had completely resolved | complete resolution of their carpal tunnel symptoms; also recorded: symptoms abated | the symptoms recurred; also recorded: remained symptom-free thereafter; also recorded: symptoms rapidly returned | remains symptom-free | Symptoms abated | Symptoms were entirely abated | symptoms had completely resolved | No progression of the graying process | remained free of cold sores | no new sore developed | five | remained free of cold sores |
